# From PubChem BioAssay (NCI)
#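 48-hour exposure; five concentrations; linearly interpolated endpoints. At the GI50, growth is halved. Definition used: TGI = concentration required for complete inhibition of growth.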
# Columns and labels:
# Assay in all cases: growth of human tumour cells (NCI), 48 h
# M14 melanoma = tested on: M14 melanoma
# TK-10 renal = tested on: TK-10 renal
# ACHN renal = tested on: ACHN renal
# EKVX NSCLC = tested on: EKVX NSCLC
# NCI-H23 lung = tested on: NCI-H23 lung
# RPMI-8226 leukemia = tested on: RPMI-8226 leukemia
# HS 578T breast = tested on: HS 578T breast
# U251 CNS = tested on: U251 CNS
# OVCAR-8 ovarian = tested on: OVCAR-8 ovarian
# LOX IMVI melanoma = tested on: LOX IMVI melanoma
# SR leukemia = tested on: SR leukemia
# NCI/ADR-RES ovarian = tested on: NCI/ADR-RES ovarian
# SK-MEL-28 melanoma = tested on: SK-MEL-28 melanoma
# COLO 205 colon = tested on: COLO 205 colon
# NCI-H522 lung = tested on: NCI-H522 lung
# CCRF-CEM leukemia = tested on: CCRF-CEM leukemia
# MALME-3M melanoma = tested on: MALME-3M melanoma
# UACC-62 melanoma = tested on: UACC-62 melanoma
# A549 NSCLC = tested on: A549 NSCLC
# KM12 colon = tested on: KM12 colon
# OVCAR-4 ovarian = tested on: OVCAR-4 ovarian
# NCI-H226 lung = tested on: NCI-H226 lung
# OVCAR-3 ovarian = tested on: OVCAR-3 ovarian
# SNB-19 CNS = tested on: SNB-19 CNS
# SK-MEL-5 melanoma = tested on: SK-MEL-5 melanoma
# IGROV1 ovarian = tested on: IGROV1 ovarian
# PC-3 prostate = tested on: PC-3 prostate
# SF-539 CNS = tested on: SF-539 CNS
# BT-549 breast = tested on: BT-549 breast
# T-47D breast = tested on: T-47D breast
# MOLT-4 leukemia = tested on: MOLT-4 leukemia
# HT29 colon = tested on: HT29 colon
# SF-268 CNS = tested on: SF-268 CNS
# CAKI-1 renal = tested on: CAKI-1 renal
# MDA-MB-231 breast = tested on: MDA-MB-231 breast
# UO-31 renal = tested on: UO-31 renal
# MCF7 breast = tested on: MCF7 breast
# 786-0 renal = tested on: 786-0 renal
# A498 renal = tested on: A498 renal
# SNB-75 CNS = tested on: SNB-75 CNS
# HL-60(TB) leukemia = tested on: HL-60(TB) leukemia
# MDA-MB-435 = tested on: MDA-MB-435
# HOP-92 NSCLC = tested on: HOP-92 NSCLC
# HCT-15 colon = tested on: HCT-15 colon
# SF-295 CNS = tested on: SF-295 CNS
# HOP-62 NSCLC = tested on: HOP-62 NSCLC
# HCT-116 colon = tested on: HCT-116 colon
# NCI-H460 lung = tested on: NCI-H460 lung
# SK-MEL-2 melanoma = tested on: SK-MEL-2 melanoma
# HCC-2998 colon = tested on: HCC-2998 colon
# OVCAR-5 ovarian = tested on: OVCAR-5 ovarian
# K-562 leukemia = tested on: K-562 leukemia
# SN12C renal = tested on: SN12C renal
# UACC-257 melanoma = tested on: UACC-257 melanoma
# SK-OV-3 ovarian = tested on: SK-OV-3 ovarian
# SW-620 colon = tested on: SW-620 colon
# DU-145 prostate = tested on: DU-145 prostate
# RXF 393 renal = tested on: RXF 393 renal
compound,measurement,setting,value
NNC(=O)c1ccccc1Nc1nc(-c2cccs2)nc2ccc(Br)cc12,TGI,M14 melanoma,> 100 µM
same,TGI,TK-10 renal,> 100 µM
same,TGI,ACHN renal,> 100 µM
same,TGI,EKVX NSCLC,> 100 µM
same,TGI,NCI-H23 lung,> 100 µM
same,TGI,RPMI-8226 leukemia,> 100 µM
same,TGI,HS 578T breast,> 100 µM
same,TGI,U251 CNS,> 100 µM
same,TGI,OVCAR-8 ovarian,> 100 µM
same,TGI,LOX IMVI melanoma,> 100 µM
same,TGI,SR leukemia,> 100 µM
same,TGI,NCI/ADR-RES ovarian,> 100 µM
same,TGI,SK-MEL-28 melanoma,> 100 µM
same,TGI,COLO 205 colon,> 100 µM
same,TGI,NCI-H522 lung,> 100 µM
same,TGI,CCRF-CEM leukemia,> 100 µM
same,TGI,MALME-3M melanoma,> 100 µM
same,TGI,UACC-62 melanoma,> 100 µM
same,TGI,A549 NSCLC,> 100 µM
same,TGI,KM12 colon,> 100 µM
same,TGI,OVCAR-4 ovarian,> 100 µM
same,TGI,NCI-H226 lung,> 100 µM
same,TGI,OVCAR-3 ovarian,> 100 µM
same,TGI,SNB-19 CNS,> 100 µM
same,TGI,SK-MEL-5 melanoma,> 100 µM
same,TGI,IGROV1 ovarian,> 100 µM
same,TGI,PC-3 prostate,> 100 µM
same,TGI,SF-539 CNS,> 100 µM
same,TGI,BT-549 breast,> 100 µM
same,TGI,T-47D breast,> 100 µM
same,TGI,MOLT-4 leukemia,> 100 µM
same,TGI,HT29 colon,> 100 µM
same,TGI,SF-268 CNS,> 100 µM
same,TGI,CAKI-1 renal,> 100 µM
same,TGI,MDA-MB-231 breast,> 100 µM
same,TGI,UO-31 renal,> 100 µM
same,TGI,MCF7 breast,> 100 µM
same,TGI,786-0 renal,> 100 µM
same,TGI,A498 renal,> 100 µM
same,TGI,SNB-75 CNS,> 100 µM
same,TGI,HL-60(TB) leukemia,> 100 µM
same,TGI,MDA-MB-435,> 100 µM
same,TGI,HOP-92 NSCLC,> 100 µM
same,TGI,HCT-15 colon,> 100 µM
same,TGI,SF-295 CNS,> 100 µM
same,TGI,HOP-62 NSCLC,> 100 µM
same,TGI,HCT-116 colon,> 100 µM
same,TGI,NCI-H460 lung,> 100 µM
same,TGI,SK-MEL-2 melanoma,> 100 µM
same,TGI,HCC-2998 colon,> 100 µM
same,TGI,OVCAR-5 ovarian,> 100 µM
same,TGI,K-562 leukemia,> 100 µM
same,TGI,SN12C renal,> 100 µM
same,TGI,UACC-257 melanoma,> 100 µM
same,TGI,SK-OV-3 ovarian,> 100 µM
same,TGI,SW-620 colon,> 100 µM
same,TGI,DU-145 prostate,> 100 µM
Cn1ccc2c1SSSSS2,GI50,M14 melanoma,18 µM
same,TGI,M14 melanoma,35.6 µM
same,GI50,TK-10 renal,27.1 µM
same,TGI,TK-10 renal,68.9 µM
same,GI50,ACHN renal,28.4 µM
same,TGI,ACHN renal,73.3 µM
same,GI50,EKVX NSCLC,44.5 µM
same,TGI,EKVX NSCLC,> 100 µM
same,GI50,NCI-H23 lung,18.9 µM
same,TGI,NCI-H23 lung,36.4 µM
same,GI50,RPMI-8226 leukemia,20.9 µM
same,TGI,RPMI-8226 leukemia,52.9 µM
same,GI50,HS 578T breast,28.8 µM
same,TGI,HS 578T breast,71.2 µM
same,GI50,U251 CNS,40 µM
same,TGI,U251 CNS,> 100 µM
same,GI50,OVCAR-8 ovarian,96.7 µM
same,TGI,OVCAR-8 ovarian,> 100 µM
same,GI50,LOX IMVI melanoma,24.8 µM
same,TGI,LOX IMVI melanoma,71 µM
same,GI50,SR leukemia,4.6 µM
same,TGI,SR leukemia,33.8 µM
same,GI50,NCI/ADR-RES ovarian,22.8 µM
same,TGI,NCI/ADR-RES ovarian,54.7 µM
same,GI50,SK-MEL-28 melanoma,21.1 µM
same,TGI,SK-MEL-28 melanoma,47.5 µM
same,GI50,COLO 205 colon,15.1 µM
same,TGI,COLO 205 colon,41.6 µM
same,GI50,NCI-H522 lung,32.1 µM
same,TGI,NCI-H522 lung,> 100 µM
same,GI50,MALME-3M melanoma,11.2 µM
same,TGI,MALME-3M melanoma,41.6 µM
same,GI50,UACC-62 melanoma,17.3 µM
same,TGI,UACC-62 melanoma,34.6 µM
same,GI50,A549 NSCLC,52.2 µM
same,TGI,A549 NSCLC,> 100 µM
same,GI50,KM12 colon,17 µM
same,TGI,KM12 colon,35.8 µM
same,GI50,OVCAR-4 ovarian,21.8 µM
same,TGI,OVCAR-4 ovarian,56 µM
same,GI50,NCI-H226 lung,21.5 µM
same,TGI,NCI-H226 lung,51 µM
same,GI50,OVCAR-3 ovarian,16.5 µM
same,TGI,OVCAR-3 ovarian,36.1 µM
same,GI50,SNB-19 CNS,36 µM
same,TGI,SNB-19 CNS,> 100 µM
same,GI50,SK-MEL-5 melanoma,16.5 µM
same,TGI,SK-MEL-5 melanoma,35.9 µM
same,GI50,IGROV1 ovarian,35.9 µM
same,TGI,IGROV1 ovarian,> 100 µM
same,GI50,RXF 393 renal,28.9 µM
same,TGI,RXF 393 renal,> 100 µM
same,GI50,PC-3 prostate,25.3 µM
same,TGI,PC-3 prostate,66.4 µM
same,GI50,SF-539 CNS,25.6 µM
same,TGI,SF-539 CNS,69.8 µM
same,GI50,BT-549 breast,61.4 µM
same,TGI,BT-549 breast,> 100 µM
same,GI50,T-47D breast,11.8 µM
same,TGI,T-47D breast,47.6 µM
same,GI50,MOLT-4 leukemia,28.5 µM
same,TGI,MOLT-4 leukemia,> 100 µM
same,GI50,HT29 colon,24.1 µM
same,TGI,HT29 colon,59.6 µM
same,GI50,SF-268 CNS,30.8 µM
same,TGI,SF-268 CNS,> 100 µM
same,GI50,CAKI-1 renal,22.4 µM
same,TGI,CAKI-1 renal,45.7 µM
same,GI50,MDA-MB-231 breast,17.9 µM
same,TGI,MDA-MB-231 breast,45.8 µM
same,GI50,UO-31 renal,36 µM
same,TGI,UO-31 renal,> 100 µM
same,GI50,MCF7 breast,17.4 µM
same,TGI,MCF7 breast,43.2 µM
same,GI50,786-0 renal,26.4 µM
same,TGI,786-0 renal,58.7 µM
same,GI50,A498 renal,> 100 µM
same,TGI,A498 renal,> 100 µM
same,GI50,MDA-MB-435,23.7 µM
same,TGI,MDA-MB-435,53.8 µM
same,GI50,HOP-92 NSCLC,2.88 µM
same,TGI,HOP-92 NSCLC,7.66 µM
same,GI50,HCT-15 colon,33.8 µM
same,TGI,HCT-15 colon,> 100 µM
same,GI50,SF-295 CNS,41.3 µM
same,TGI,SF-295 CNS,> 100 µM
same,GI50,HOP-62 NSCLC,> 100 µM
same,TGI,HOP-62 NSCLC,> 100 µM
same,GI50,HCT-116 colon,17.4 µM
same,TGI,HCT-116 colon,31.1 µM
same,GI50,NCI-H460 lung,47.6 µM
same,TGI,NCI-H460 lung,> 100 µM
same,GI50,SK-MEL-2 melanoma,49.6 µM
same,TGI,SK-MEL-2 melanoma,> 100 µM
same,GI50,HCC-2998 colon,17.1 µM
same,TGI,HCC-2998 colon,33 µM
same,GI50,OVCAR-5 ovarian,23 µM
same,TGI,OVCAR-5 ovarian,47.1 µM
same,GI50,K-562 leukemia,23.2 µM
same,TGI,K-562 leukemia,> 100 µM
same,GI50,SN12C renal,21 µM
same,TGI,SN12C renal,42 µM
same,GI50,UACC-257 melanoma,52.3 µM
same,TGI,UACC-257 melanoma,> 100 µM
same,GI50,SK-OV-3 ovarian,37.5 µM
same,TGI,SK-OV-3 ovarian,> 100 µM
same,GI50,SW-620 colon,29.1 µM
same,TGI,SW-620 colon,84.7 µM
same,GI50,DU-145 prostate,31.7 µM
same,TGI,DU-145 prostate,> 100 µM
